The values that follow come from patent US20120264159A1, “SCREENING SYSTEM FOR MODULATORS OF HER2 MEDIATED TRANSCRIPTION AND HER2 MODULATORS IDENTIFED THEREBY” (BUCK INSTITUTE FOR AGE RESEARCH, priority 2001, published 2012).

Each structure is given as a SMILES string. Entries after “also recorded” stand apart in the source; their conditions may differ.

One data set deals with ErbB2 promoter. In words: Genomically integrated ErbB2 promoter-luciferase reporter screen in MCF/R06pGL-9 cells. Format: cell-based, human. The following applies: 24 h treatment. The protocol:
(§1) Reporter activity was assayed as follows: From T-150 or T-75 culture flasks, about […] cells/well were plated into a 96 well plate format for high-throughput screening. 24 hours post plating a test agent e.g. a drug from a combinatorial library, was added to the wells at various concentrations. Certain wells were used as controls (e.g. PBS or DMSO vehicle only). Replicate wells ([…] per drug concentration) were run. 24 hours after addition of the test agent the cells were lysed, a luciferase reagent was added and activity in each well was read using a high-throughput screening plate reader (labsystems Fluoroskan). Parallel plates were run for cell viability using an MTT assay (Sigma).
A luciferase reporter plasmid (designated RO6pGL-luc) was constructed by inserting the ˜500 bp SmaI-SmaI fragment of the human ErbB2 proximal promoter (12) into the pGL3Basic plasmid driving a luciferase reporter gene, as has been described (10). R06pGL-luc and a plasmid expressing neomycin phosphotransferase were co-transfected into the MCF-7 cells (ATCC) using Effectene (Qiagen). Cells were selected for stable expression of luciferase and neomycin (G418)-resistance. […] The reaction was quantified by absorbance at 570 nm measured with a microplate reader (Molecular Devices) and the mean (±SD) optical density recorded after normalization by the vehicle treated controls. […]

A further data set has as its system MCF/R06pGL-9 cells. Put plainly: MTT cell viability assay on MCF/R06pGL-9 cells. Format: cell-based, human. From the text:
A luciferase reporter plasmid (designated RO6pGL-luc) was constructed by inserting the ˜500 bp SmaI-SmaI fragment of the human ErbB2 proximal promoter (12) into the pGL3Basic plasmid driving a luciferase reporter gene, as has been described (10). R06pGL-luc and a plasmid expressing neomycin phosphotransferase were co-transfected into the MCF-7 cells (ATCC) using Effectene (Qiagen). Cells were selected for stable expression of luciferase and neomycin (G418)-resistance. Single cell clones including MCF/R06pGL-9 were isolated and maintained in DME H-16 medium supplemented with 10% fetal bovine serum, 10 μg/ml insulin, 100 μg/ml penicillin/streptomycin, and 500 μg/ml G418. MTT cell viability and luciferase expression assays on the MCF/RO6pGL-9 sublime were performed after plating the subline into 96-well culture dishes at a density of 10^4 cells/well in 100 μL medium. After 24 hour cell plating, TSA from stock DMSO solution was diluted into 100 μL medium and then added into eight replicate wells at the indicated concentrations. […] The reaction was quantified by absorbance at 570 nm measured with a microplate reader (Molecular Devices) and the mean (±SD) optical density recorded after normalization by the vehicle treated controls. […]

For another data set, the system named is ESX transcript. Put plainly: Northern blot of ESX transcript levels in SKBR3 cells. The following applies: 24 hours TSA treatment. Format: cell-based, human. The protocol: (§2) The conserved and singular DNase I hypersensitivity sites found in the proximal ErbB2 and ESX promoters (12,15) were assayed as before (12). Briefly, following culture treatment of cells, nuclei isolated by mild detergent lysis in a buffer containing 10 mM Hepes pH 7.9, 1.5 mM MgCl2, 10 mM KCl, 0.4% NP-40, 10% glycerol and 1 mM DTT. Partial DNase I digestions were carried out by varying DNase I treatment times (0-15 minutes at 37( ) at a fixed DNase I concentrations (0.5-1.0 units per 10^6 nuclei). After purifying and restricting the DNA, it was electrophoresed through 0.7% agarose gels and blotted onto nylon membranes, UV-crosslinked and hybridized with randomly ^32P-labelled ErbB2 and ESX promoter probes, as similarly performed for routine Southern blotting. For Northern blotting, total (treated vs. control) cell RNA (10 μg/sample lane) was isolated using TRIzol (Invitrogen) according to manufacturer's specifications, electrophoresed into 1% agarose-formaldehyde gels and transferred onto membranes that were then hybridized with ^32P-labelled ErbB2 and ESX cDNA probes. For transcriptional run-off assays cell nuclei were first isolated from treated and control cells as described for the DNase I studies. […]

For the next data set, the system named is ErbB2 protein. Put plainly: Western blot of 185 kDa ErbB2 protein levels in breast cancer cell lines. Format: cell-based, human. The protocol: as §2
A general note: In western blotting, separated proteins are transferred to a membrane and probed.

Data set [1] deals with ErbB2 and ESX promoter hypersensitive loci. In words: DNase I hypersensitivity analysis of ErbB2 and ESX promoters. It counts as cell-based, human. The following applies: SKBR3 cells, 24 hour, 0.4 μM TSA. The protocol: as §2
Another data set concerns RO6 HER2 promoter. Put plainly: Basal promoter activity of MCF-7b stable RO6 populations. The following applies: 10 nM, 24 hours, serum-free media, clone and polyclonal populations. It counts as cell-based, human. The protocol: Parental cell lines MCF-7, and MDA-453 were transfected with the construct Ro6pGL (FIG. 2) in conjunction with pcMneo construct using lipid-based transfection (Effectene) at a ratio of 20:1 reporter:selectable marker (see, FIG. 4). Monoclonal and polyclonal populations were selected in 0.5 mg/ml G418 over 2 to 4 weeks.
as §1

The test system of data set [2] is NCI panel of 60 human cancer cell lines. The following applies: NCI/DTP screen, 60 human cancer cell line panel; read-out: median cytotoxic concentration (LC50); cited from earlier work.

Regarding `CC(/C=C/C(=O)NO)=C\[C@@H](C)C(=O)c1ccc(N(C)C)cc1` [TSA, trichostatin A], in the data set with ErbB2 promoter, the “ErbB2 promoter-reporter (luciferase) activity” value was “significantly represses; also recorded: significant reduction of luciferase activity”. Also, the “cell viability (MTT assay)” value was “little impact on cell viability” in the data set on MCF/R06pGL-9 cells (24 hours exposure, TSA concentrations up to 50 μM) and “does not impair cell viability” in the data set on MCF/R06pGL-9 cells (dose <1 μM, within 24 h). For the same compound, the “increase in ESX transcript levels” value in the data set with ESX transcript is given as 5 fold. Moreover, the “ectopic 185 kDa ErbB2 protein level” value with ErbB2 protein (MCF/HER2-18 cells (CMV promoter), same TSA treatment conditions) is recorded as “further stimulated”. In addition, the “endogenous 185 kDa ErbB2 protein levels (normalized to α-tubulin)” value in the data set with ErbB2 protein (SKBR3, MDA-453 and BT-474 cells, 24 hour, 0.4 μM TSA) was “marked decline”. In addition, in data set [1], the “DNase I hypersensitivity of ErbB2 and ESX promoter loci” value is recorded as “lack of any TSA treatment effects on the hypersensitive loci”. Moreover, the basal promoter activity entry with RO6 HER2 promoter is reported as “decreased basal promoter activity”. For the same compound, in data set [2], the CC50 is above 10 µM.
